Experiment [1] addresses Mitogen-activated protein kinase 1 (ERK2) (Homo sapiens) (UniProt P28482). Nature of the experiment: Inhibition of MAPK2.
Experiment [2] has as its target 3-phosphoinositide-dependent protein kinase 1 (PDPK1) (Homo sapiens) (UniProt O15530). The experiment in a line: Inhibition of PDK1.

pIC50: −log10 of the molar value. Bounds are passed on as bounds.

A word on the pIC50: it is the negative decadic logarithm of the IC50, by convention in mol/L.

Sequence of Mitogen-activated protein kinase 1 (ERK2) (Homo sapiens) (P28482 whole entry, looked up): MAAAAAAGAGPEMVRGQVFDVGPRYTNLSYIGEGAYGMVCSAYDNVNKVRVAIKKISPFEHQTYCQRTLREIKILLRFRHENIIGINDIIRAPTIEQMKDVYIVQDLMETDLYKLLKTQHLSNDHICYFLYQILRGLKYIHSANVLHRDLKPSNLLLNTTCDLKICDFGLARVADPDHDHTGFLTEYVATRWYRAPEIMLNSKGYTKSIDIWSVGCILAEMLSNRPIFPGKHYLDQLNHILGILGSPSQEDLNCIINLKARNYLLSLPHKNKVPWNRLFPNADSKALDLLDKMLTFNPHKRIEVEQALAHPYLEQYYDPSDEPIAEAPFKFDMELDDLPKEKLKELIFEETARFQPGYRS

In the case of `Nc1nccn2c1c(-c1ccc3ccc(-c4ccccc4)nc3c1)nc2[C@H]1C[C@@H](CN2CCC2)C1` [cis-3-(3-(azetidin-1-ylmethyl)cyclobutyl)-1-(2-phenylquinolin-7-yl)imidazo[1,5-a]pyrazin-8-amine], the pIC50 is below 5.00 in experiment [1] and below 4.52 in experiment [2].

The record behind these values is BindingDB's records for doi:10.1016/j.bmc.2007.10.061 (Osi Pharmaceuticals, 2008).
